Earlier results, collected in US20220288158A1, “NOVEL ENTERIC COMBINATION THERAPY” (priority 2009, published 2022).

System: patients with constipation
Conditions: for effect on bowel activity when used in constipation: literature, Brandt L J et al 2009

Molecule	effect on bowel activity when used in constipation	use of vancomycin alone in constipation (not all patients respond, and respond but partially)
CC[C@H]1OC(=O)[C@H](C)[C@@H](O[C@H]2C[C@@](C)(OC)[C@@H](O)[C@H](C)O2)[C@H](C)[C@@H](O[C@@H]2O[C@H](C)C[C@H](N(C)C)[C@H]2O)[C@](C)(OC)C[C@@H](C)C(=O)[C@H](C)[C@@H](O)[C@]1(C)O [clarithromycin]	variable and not reproducible	
Cc1ncc([N+](=O)[O-])n1CCO [metronidazole]	variable and not reproducible	
CO[C@H]1/C=C/O[C@@]2(C)Oc3c(C)c(O)c4c(O)c(c5c(nc6cc(C)ccn65)c4c3C2=O)NC(=O)/C(C)=C\C=C\[C@H](C)[C@H](O)[C@@H](C)[C@@H](O)[C@@H](C)[C@H](OC(C)=O)[C@@H]1C [rifaximin]	variable and not reproducible	
CN[C@H](CC(C)C)C(=O)N[C@H]1C(=O)N[C@@H](CC(N)=O)C(=O)N[C@H]2C(=O)N[C@H]3C(=O)N[C@H](C(=O)N[C@H](C(=O)O)c4cc(O)cc(O)c4-c4cc3ccc4O)[C@H](O)c3ccc(c(Cl)c3)Oc3cc2cc(c3O[C@@H]2O[C@H](CO)[C@@H](O)[C@H](O)[C@H]2O[C@H]2C[C@](C)(N)[C@H](O)[C@H](C)O2)Oc2ccc(cc2Cl)[C@H]1O [vancomycin]		inefficient
neomycin	variable and not reproducible	
